# System: Genes belonging to other category
# Assay: DNA chip mRNA expression in yeast, genes belonging to other category (Table 9)
# Type: cell-based, Saccharomyces cerevisiae S288C
# Procedure, shortened: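 Values are treated/untreated fluorescence ratios from a whole-genome yeast DNA chip hybridized over 12 hours at 65° C with Cy3- or Cy5-labelled cDNA from poly(A) mRNA. Log-phase S288C yeast in YPD at 25° C had received a single toxic chemical for two hours, dosed to slow growth without killing.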
smiles,measurement,setting,value
"CCCCCCCCCCCCOS(=O)(=O)[O-].[Na+] [(18), sodium lauryl sulfate]",The level of expressed mRNA in the presence of chemical substance/The level of expressed mRNA in the absence of chemical substance,yeast gene YDR392W,1.2
same,The level of expressed mRNA in the presence of chemical substance/The level of expressed mRNA in the absence of chemical substance,yeast gene YDR403W,1.0
same,The level of expressed mRNA in the presence of chemical substance/The level of expressed mRNA in the absence of chemical substance,yeast gene YDR432W,0.7
same,The level of expressed mRNA in the presence of chemical substance/The level of expressed mRNA in the absence of chemical substance,yeast gene YDR481C,1.4
same,The level of expressed mRNA in the presence of chemical substance/The level of expressed mRNA in the absence of chemical substance,yeast gene YDR510W,1.5
same,The level of expressed mRNA in the presence of chemical substance/The level of expressed mRNA in the absence of chemical substance,yeast gene YEL042W,0.8
same,The level of expressed mRNA in the presence of chemical substance/The level of expressed mRNA in the absence of chemical substance,yeast gene YEL066W,1.1
same,The level of expressed mRNA in the presence of chemical substance/The level of expressed mRNA in the absence of chemical substance,yeast gene YER039C,1.1
same,The level of expressed mRNA in the presence of chemical substance/The level of expressed mRNA in the absence of chemical substance,yeast gene YER066W,1.1
same,The level of expressed mRNA in the presence of chemical substance/The level of expressed mRNA in the absence of chemical substance,yeast gene YER107C,1.2
same,The level of expressed mRNA in the presence of chemical substance/The level of expressed mRNA in the absence of chemical substance,yeast gene YER130C,2.5
same,The level of expressed mRNA in the presence of chemical substance/The level of expressed mRNA in the absence of chemical substance,yeast gene YFL022C,0.8
same,The level of expressed mRNA in the presence of chemical substance/The level of expressed mRNA in the absence of chemical substance,yeast gene YFL028C,1.5
same,The level of expressed mRNA in the presence of chemical substance/The level of expressed mRNA in the absence of chemical substance,yeast gene YFL029C,1.4
same,The level of expressed mRNA in the presence of chemical substance/The level of expressed mRNA in the absence of chemical substance,yeast gene YFL043C,1.2
same,The level of expressed mRNA in the presence of chemical substance/The level of expressed mRNA in the absence of chemical substance,yeast gene YFR004W,1.4
same,The level of expressed mRNA in the presence of chemical substance/The level of expressed mRNA in the absence of chemical substance,yeast gene YFR014C,2.9
same,The level of expressed mRNA in the presence of chemical substance/The level of expressed mRNA in the absence of chemical substance,yeast gene YFR050C,1.7
same,The level of expressed mRNA in the presence of chemical substance/The level of expressed mRNA in the absence of chemical substance,yeast gene YGL093W,1.2
same,The level of expressed mRNA in the presence of chemical substance/The level of expressed mRNA in the absence of chemical substance,yeast gene YGL094C,0.9
same,The level of expressed mRNA in the presence of chemical substance/The level of expressed mRNA in the absence of chemical substance,yeast gene YGL141W,1.2
same,The level of expressed mRNA in the presence of chemical substance/The level of expressed mRNA in the absence of chemical substance,yeast gene YGL150C,0.8
same,The level of expressed mRNA in the presence of chemical substance/The level of expressed mRNA in the absence of chemical substance,yeast gene YGL158W,1.1
same,The level of expressed mRNA in the presence of chemical substance/The level of expressed mRNA in the absence of chemical substance,yeast gene YGL166W,1.9
same,The level of expressed mRNA in the presence of chemical substance/The level of expressed mRNA in the absence of chemical substance,yeast gene YGL207W,0.8
same,The level of expressed mRNA in the presence of chemical substance/The level of expressed mRNA in the absence of chemical substance,yeast gene YGL229C,0.9
same,The level of expressed mRNA in the presence of chemical substance/The level of expressed mRNA in the absence of chemical substance,yeast gene YGR036C,1.1
same,The level of expressed mRNA in the presence of chemical substance/The level of expressed mRNA in the absence of chemical substance,yeast gene YGR048W,1.2
same,The level of expressed mRNA in the presence of chemical substance/The level of expressed mRNA in the absence of chemical substance,yeast gene YGR135W,1.9
same,The level of expressed mRNA in the presence of chemical substance/The level of expressed mRNA in the absence of chemical substance,yeast gene YGR136W,1.8
same,The level of expressed mRNA in the presence of chemical substance/The level of expressed mRNA in the absence of chemical substance,yeast gene YGR186W,1.2
same,The level of expressed mRNA in the presence of chemical substance/The level of expressed mRNA in the absence of chemical substance,yeast gene YGR189C,1.7
same,The level of expressed mRNA in the presence of chemical substance/The level of expressed mRNA in the absence of chemical substance,yeast gene YGR213C,8.5
same,The level of expressed mRNA in the presence of chemical substance/The level of expressed mRNA in the absence of chemical substance,yeast gene YGR232W,1.2
same,The level of expressed mRNA in the presence of chemical substance/The level of expressed mRNA in the absence of chemical substance,yeast gene YGR257C,1.3
same,The level of expressed mRNA in the presence of chemical substance/The level of expressed mRNA in the absence of chemical substance,yeast gene YHL024W,1.4
same,The level of expressed mRNA in the presence of chemical substance/The level of expressed mRNA in the absence of chemical substance,yeast gene YHR004C,1.6
same,The level of expressed mRNA in the presence of chemical substance/The level of expressed mRNA in the absence of chemical substance,yeast gene YHR027C,1.0
same,The level of expressed mRNA in the presence of chemical substance/The level of expressed mRNA in the absence of chemical substance,yeast gene YHR071W,1.0
same,The level of expressed mRNA in the presence of chemical substance/The level of expressed mRNA in the absence of chemical substance,yeast gene YHR139C,1.3
same,The level of expressed mRNA in the presence of chemical substance/The level of expressed mRNA in the absence of chemical substance,yeast gene YHR142W,1.3
same,The level of expressed mRNA in the presence of chemical substance/The level of expressed mRNA in the absence of chemical substance,yeast gene YHR163W,1.2
same,The level of expressed mRNA in the presence of chemical substance/The level of expressed mRNA in the absence of chemical substance,yeast gene YIL050W,1.1
same,The level of expressed mRNA in the presence of chemical substance/The level of expressed mRNA in the absence of chemical substance,yeast gene YIL076W,2.5
same,The level of expressed mRNA in the presence of chemical substance/The level of expressed mRNA in the absence of chemical substance,yeast gene YIL123W,1.0
same,The level of expressed mRNA in the presence of chemical substance/The level of expressed mRNA in the absence of chemical substance,yeast gene YIL140W,1.0
same,The level of expressed mRNA in the presence of chemical substance/The level of expressed mRNA in the absence of chemical substance,yeast gene YIL142W,0.8
same,The level of expressed mRNA in the presence of chemical substance/The level of expressed mRNA in the absence of chemical substance,yeast gene YIR039C,1.1
